Reference: the NIST ThermoML archive (doi:10.1021/je500389t)
Numbers after ± are expanded uncertainties.

Test: xn = mol fraction of the nth substance listed
Conditions: 101 kPa, Liquid; for viscosity: Capillary tube (Ostwald / Ubbelohde) method; for mass density: Pycnometric method

COCCOCCOC [2,5,8-trioxanonane] + O
viscosity (293.15 K, x1 = 0.0147): 1.39 ± 0.04 mPa·s
viscosity (293.15 K, x1 = 0.0325): 1.9 ± 0.04 mPa·s
viscosity (293.15 K, x1 = 0.0548): 2.56 ± 0.04 mPa·s
viscosity (293.15 K, x1 = 0.0822): 3.21 ± 0.04 mPa·s
viscosity (293.15 K, x1 = 0.1183): 3.65 ± 0.04 mPa·s
viscosity (293.15 K, x1 = 0.1676): 3.63 ± 0.04 mPa·s
viscosity (293.15 K, x1 = 0.2384): 3.12 ± 0.04 mPa·s
viscosity (293.15 K, x1 = 0.2866): 2.75 ± 0.04 mPa·s
viscosity (293.15 K, x1 = 0.3468): 2.36 ± 0.04 mPa·s
viscosity (293.15 K, x1 = 0.4495): 1.97 ± 0.04 mPa·s
viscosity (293.15 K, x1 = 0.5426): 1.61 ± 0.04 mPa·s
viscosity (293.15 K, x1 = 0.699): 1.32 ± 0.04 mPa·s
viscosity (293.15 K, x1 = 0.7996): 1.21 ± 0.04 mPa·s
viscosity (293.15 K, x1 = 0.8928): 1.14 ± 0.04 mPa·s
viscosity (293.15 K, x1 = 1): 1.09 ± 0.04 mPa·s
mass density (293.15 K, x1 = 0.0147): 1000.9 ± 2 kg/m3
mass density (293.15 K, x1 = 0.0325): 1004.6 ± 2 kg/m3
mass density (293.15 K, x1 = 0.0548): 1008.4 ± 2 kg/m3
mass density (293.15 K, x1 = 0.0822): 1010.3 ± 2 kg/m3
mass density (293.15 K, x1 = 0.1183): 1009.2 ± 2 kg/m3
mass density (293.15 K, x1 = 0.1676): 1003.2 ± 2 kg/m3
mass density (293.15 K, x1 = 0.2384): 993.6 ± 2 kg/m3
mass density (293.15 K, x1 = 0.2866): 987.3 ± 2 kg/m3
mass density (293.15 K, x1 = 0.3468): 980.1 ± 2 kg/m3
mass density (293.15 K, x1 = 0.4495): 970.7 ± 2 kg/m3
mass density (293.15 K, x1 = 0.5426): 963.6 ± 2 kg/m3
mass density (293.15 K, x1 = 0.699): 955.5 ± 2 kg/m3
mass density (293.15 K, x1 = 0.7996): 951.2 ± 2 kg/m3
mass density (293.15 K, x1 = 0.8928): 948.3 ± 2 kg/m3
mass density (293.15 K, x1 = 1): 945.2 ± 2 kg/m3
viscosity (298.15 K, x1 = 0.0147): 1.22 ± 0.04 mPa·s
viscosity (298.15 K, x1 = 0.0325): 1.66 ± 0.04 mPa·s
viscosity (298.15 K, x1 = 0.0548): 2.2 ± 0.04 mPa·s
viscosity (298.15 K, x1 = 0.0822): 2.73 ± 0.04 mPa·s
viscosity (298.15 K, x1 = 0.1183): 3.1 ± 0.04 mPa·s
viscosity (298.15 K, x1 = 0.1676): 3.09 ± 0.04 mPa·s
viscosity (298.15 K, x1 = 0.2384): 2.7 ± 0.04 mPa·s
viscosity (298.15 K, x1 = 0.2866): 2.42 ± 0.04 mPa·s
viscosity (298.15 K, x1 = 0.3468): 2.1 ± 0.04 mPa·s
viscosity (298.15 K, x1 = 0.4495): 1.77 ± 0.04 mPa·s
viscosity (298.15 K, x1 = 0.5426): 1.47 ± 0.04 mPa·s
viscosity (298.15 K, x1 = 0.699): 1.2 ± 0.04 mPa·s
viscosity (298.15 K, x1 = 0.7996): 1.11 ± 0.04 mPa·s
viscosity (298.15 K, x1 = 0.8928): 1.05 ± 0.04 mPa·s
viscosity (298.15 K, x1 = 1): 0.998 ± 0.041 mPa·s
mass density (298.15 K, x1 = 0.0147): 998.8 ± 2 kg/m3
mass density (298.15 K, x1 = 0.0325): 1002.7 ± 2 kg/m3
mass density (298.15 K, x1 = 0.0548): 1005.5 ± 2 kg/m3
mass density (298.15 K, x1 = 0.0822): 1006.8 ± 2 kg/m3
mass density (298.15 K, x1 = 0.1183): 1004.8 ± 2 kg/m3
mass density (298.15 K, x1 = 0.1676): 998.7 ± 2 kg/m3
mass density (298.15 K, x1 = 0.2384): 988.3 ± 2 kg/m3
mass density (298.15 K, x1 = 0.2866): 982 ± 2 kg/m3
mass density (298.15 K, x1 = 0.3468): 974.9 ± 2 kg/m3
mass density (298.15 K, x1 = 0.4495): 965.4 ± 2 kg/m3
mass density (298.15 K, x1 = 0.5426): 958.5 ± 2 kg/m3
mass density (298.15 K, x1 = 0.699): 950.2 ± 2 kg/m3
mass density (298.15 K, x1 = 0.7996): 945.9 ± 2 kg/m3
mass density (298.15 K, x1 = 0.8928): 942.9 ± 2 kg/m3
mass density (298.15 K, x1 = 1): 939.8 ± 2 kg/m3
viscosity (303.15 K, x1 = 0.0147): 1.06 ± 0.04 mPa·s
viscosity (303.15 K, x1 = 0.0325): 1.41 ± 0.04 mPa·s
viscosity (303.15 K, x1 = 0.0548): 1.82 ± 0.04 mPa·s
viscosity (303.15 K, x1 = 0.0822): 2.22 ± 0.04 mPa·s
viscosity (303.15 K, x1 = 0.1183): 2.51 ± 0.04 mPa·s
viscosity (303.15 K, x1 = 0.1676): 2.53 ± 0.04 mPa·s
viscosity (303.15 K, x1 = 0.2384): 2.24 ± 0.04 mPa·s
viscosity (303.15 K, x1 = 0.2866): 2.01 ± 0.04 mPa·s
viscosity (303.15 K, x1 = 0.3468): 1.77 ± 0.04 mPa·s
viscosity (303.15 K, x1 = 0.4495): 1.47 ± 0.04 mPa·s
viscosity (303.15 K, x1 = 0.5426): 1.27 ± 0.04 mPa·s
viscosity (303.15 K, x1 = 0.699): 1.08 ± 0.04 mPa·s
viscosity (303.15 K, x1 = 0.7996): 0.997 ± 0.04 mPa·s
viscosity (303.15 K, x1 = 0.8928): 0.955 ± 0.04 mPa·s
viscosity (303.15 K, x1 = 1): 0.914 ± 0.04 mPa·s
mass density (303.15 K, x1 = 0.0147): 997.5 ± 2 kg/m3
mass density (303.15 K, x1 = 0.0325): 1000.2 ± 2 kg/m3
mass density (303.15 K, x1 = 0.0548): 1002.4 ± 2 kg/m3
mass density (303.15 K, x1 = 0.0822): 1003.1 ± 2 kg/m3
mass density (303.15 K, x1 = 0.1183): 1000.3 ± 2 kg/m3
mass density (303.15 K, x1 = 0.1676): 994.1 ± 2 kg/m3
mass density (303.15 K, x1 = 0.2384): 983.9 ± 2 kg/m3
mass density (303.15 K, x1 = 0.2866): 977.5 ± 2 kg/m3
mass density (303.15 K, x1 = 0.3468): 970.4 ± 2 kg/m3
mass density (303.15 K, x1 = 0.4495): 960.9 ± 2 kg/m3
mass density (303.15 K, x1 = 0.5426): 953.8 ± 2 kg/m3
mass density (303.15 K, x1 = 0.699): 945.4 ± 2 kg/m3
mass density (303.15 K, x1 = 0.7996): 941.2 ± 2 kg/m3
mass density (303.15 K, x1 = 0.8928): 938.1 ± 2 kg/m3
mass density (303.15 K, x1 = 1): 935 ± 2 kg/m3
viscosity (308.15 K, x1 = 0.0147): 0.939 ± 0.04 mPa·s
viscosity (308.15 K, x1 = 0.0325): 1.23 ± 0.04 mPa·s
viscosity (308.15 K, x1 = 0.0548): 1.576 ± 0.041 mPa·s
viscosity (308.15 K, x1 = 0.0822): 1.91 ± 0.04 mPa·s
viscosity (308.15 K, x1 = 0.1183): 2.13 ± 0.04 mPa·s
viscosity (308.15 K, x1 = 0.1676): 2.14 ± 0.04 mPa·s
viscosity (308.15 K, x1 = 0.2384): 1.92 ± 0.04 mPa·s
viscosity (308.15 K, x1 = 0.2866): 1.75 ± 0.04 mPa·s
viscosity (308.15 K, x1 = 0.3468): 1.5 ± 0.04 mPa·s
viscosity (308.15 K, x1 = 0.4495): 1.31 ± 0.04 mPa·s
viscosity (308.15 K, x1 = 0.5426): 1.14 ± 0.04 mPa·s
viscosity (308.15 K, x1 = 0.699): 1 ± 0.04 mPa·s
viscosity (308.15 K, x1 = 0.7996): 0.902 ± 0.04 mPa·s
viscosity (308.15 K, x1 = 0.8928): 0.862 ± 0.04 mPa·s
viscosity (308.15 K, x1 = 1): 0.834 ± 0.04 mPa·s
mass density (308.15 K, x1 = 0.0147): 995.3 ± 2 kg/m3
mass density (308.15 K, x1 = 0.0325): 998.1 ± 2 kg/m3
mass density (308.15 K, x1 = 0.0548): 999.6 ± 2 kg/m3
mass density (308.15 K, x1 = 0.0822): 999.7 ± 2 kg/m3
mass density (308.15 K, x1 = 0.1183): 996.5 ± 2 kg/m3
mass density (308.15 K, x1 = 0.1676): 990.1 ± 2 kg/m3
mass density (308.15 K, x1 = 0.2384): 979.3 ± 2 kg/m3
mass density (308.15 K, x1 = 0.2866): 973.2 ± 2 kg/m3
mass density (308.15 K, x1 = 0.3468): 965.6 ± 2 kg/m3
mass density (308.15 K, x1 = 0.4495): 956.2 ± 2 kg/m3
mass density (308.15 K, x1 = 0.5426): 949.2 ± 2 kg/m3
mass density (308.15 K, x1 = 0.699): 941 ± 2 kg/m3
mass density (308.15 K, x1 = 0.7996): 936.4 ± 2 kg/m3
mass density (308.15 K, x1 = 0.8928): 933.3 ± 2 kg/m3
mass density (308.15 K, x1 = 1): 930.7 ± 2 kg/m3
viscosity (313.15 K, x1 = 0.0147): 0.865 ± 0.04 mPa·s
viscosity (313.15 K, x1 = 0.0325): 1.09 ± 0.04 mPa·s
viscosity (313.15 K, x1 = 0.0548): 1.41 ± 0.04 mPa·s
viscosity (313.15 K, x1 = 0.0822): 1.7 ± 0.04 mPa·s
viscosity (313.15 K, x1 = 0.1183): 1.88 ± 0.04 mPa·s
viscosity (313.15 K, x1 = 0.1676): 1.9 ± 0.04 mPa·s
viscosity (313.15 K, x1 = 0.2384): 1.72 ± 0.04 mPa·s
viscosity (313.15 K, x1 = 0.2866): 1.58 ± 0.04 mPa·s
viscosity (313.15 K, x1 = 0.3468): 1.42 ± 0.04 mPa·s
viscosity (313.15 K, x1 = 0.4495): 1.21 ± 0.04 mPa·s
viscosity (313.15 K, x1 = 0.5426): 1.06 ± 0.04 mPa·s
viscosity (313.15 K, x1 = 0.699): 0.941 ± 0.04 mPa·s
viscosity (313.15 K, x1 = 0.7996): 0.851 ± 0.04 mPa·s
viscosity (313.15 K, x1 = 0.8928): 0.817 ± 0.04 mPa·s
viscosity (313.15 K, x1 = 1): 0.785 ± 0.04 mPa·s
mass density (313.15 K, x1 = 0.0147): 994.3 ± 2 kg/m3
mass density (313.15 K, x1 = 0.0325): 995.2 ± 2 kg/m3
mass density (313.15 K, x1 = 0.0548): 995.9 ± 2 kg/m3
mass density (313.15 K, x1 = 0.0822): 995.8 ± 2 kg/m3
mass density (313.15 K, x1 = 0.1183): 992.1 ± 2 kg/m3
mass density (313.15 K, x1 = 0.1676): 985.4 ± 2 kg/m3
mass density (313.15 K, x1 = 0.2384): 974.5 ± 2 kg/m3
mass density (313.15 K, x1 = 0.2866): 968 ± 2 kg/m3
mass density (313.15 K, x1 = 0.3468): 960.8 ± 2 kg/m3
mass density (313.15 K, x1 = 0.4495): 951.1 ± 2 kg/m3
mass density (313.15 K, x1 = 0.5426): 943.8 ± 2 kg/m3
mass density (313.15 K, x1 = 0.699): 935.7 ± 2 kg/m3
mass density (313.15 K, x1 = 0.7996): 931.4 ± 2 kg/m3
mass density (313.15 K, x1 = 0.8928): 928.2 ± 2 kg/m3
mass density (313.15 K, x1 = 1): 925.4 ± 2 kg/m3
